This passage reports EC50 and Max % results from patent US9988400B2 (Genentech, Inc., priority 2013, dated 2018).

This assay has as its target T1, HEK cells stably transfected with tetracycline inducible hNR1 and hNR2A (Homo sapiens, UniProt Q05586+Q12879).
T1 construct: expressed in transfected cells; host or cells: HEK cells, stably transfected, tetracycline/doxycycline inducible
In words: Assay 1: Cell-Based Assay, cytosolic calcium response to positive allosteric modulators (with 30 μM glycine and 300 nM L-glutamate, EC30). The note with it: for EC50: cytosolic calcium response, with 30 μM glycine and 300 nM L-glutamate (EC30), — = no plateau was reached; for Max %: responses scaled relative to 100 μM L-glutamate maximal response (100%) and 0 μM L-glutamate (0%). In outline:
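Cells induced 24 h with 7.5 μg mL^−1 doxycycline plus 500 μM (+)-ketamine, loaded 60 min at 37 °C with calcium dye in Mg-free HBSS (1.8 mM Ca, probenecid, 10 μM (+)-ketamine, pH 7.15). Peak RFU over 5 min after compound addition, scaled to 100 μM L-glutamate (100%) and 0 μM (0%); four-parameter Hill fit for EC50, max % if no plateau.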

T1 sequence (Q12879 23-1464, other chains not shown): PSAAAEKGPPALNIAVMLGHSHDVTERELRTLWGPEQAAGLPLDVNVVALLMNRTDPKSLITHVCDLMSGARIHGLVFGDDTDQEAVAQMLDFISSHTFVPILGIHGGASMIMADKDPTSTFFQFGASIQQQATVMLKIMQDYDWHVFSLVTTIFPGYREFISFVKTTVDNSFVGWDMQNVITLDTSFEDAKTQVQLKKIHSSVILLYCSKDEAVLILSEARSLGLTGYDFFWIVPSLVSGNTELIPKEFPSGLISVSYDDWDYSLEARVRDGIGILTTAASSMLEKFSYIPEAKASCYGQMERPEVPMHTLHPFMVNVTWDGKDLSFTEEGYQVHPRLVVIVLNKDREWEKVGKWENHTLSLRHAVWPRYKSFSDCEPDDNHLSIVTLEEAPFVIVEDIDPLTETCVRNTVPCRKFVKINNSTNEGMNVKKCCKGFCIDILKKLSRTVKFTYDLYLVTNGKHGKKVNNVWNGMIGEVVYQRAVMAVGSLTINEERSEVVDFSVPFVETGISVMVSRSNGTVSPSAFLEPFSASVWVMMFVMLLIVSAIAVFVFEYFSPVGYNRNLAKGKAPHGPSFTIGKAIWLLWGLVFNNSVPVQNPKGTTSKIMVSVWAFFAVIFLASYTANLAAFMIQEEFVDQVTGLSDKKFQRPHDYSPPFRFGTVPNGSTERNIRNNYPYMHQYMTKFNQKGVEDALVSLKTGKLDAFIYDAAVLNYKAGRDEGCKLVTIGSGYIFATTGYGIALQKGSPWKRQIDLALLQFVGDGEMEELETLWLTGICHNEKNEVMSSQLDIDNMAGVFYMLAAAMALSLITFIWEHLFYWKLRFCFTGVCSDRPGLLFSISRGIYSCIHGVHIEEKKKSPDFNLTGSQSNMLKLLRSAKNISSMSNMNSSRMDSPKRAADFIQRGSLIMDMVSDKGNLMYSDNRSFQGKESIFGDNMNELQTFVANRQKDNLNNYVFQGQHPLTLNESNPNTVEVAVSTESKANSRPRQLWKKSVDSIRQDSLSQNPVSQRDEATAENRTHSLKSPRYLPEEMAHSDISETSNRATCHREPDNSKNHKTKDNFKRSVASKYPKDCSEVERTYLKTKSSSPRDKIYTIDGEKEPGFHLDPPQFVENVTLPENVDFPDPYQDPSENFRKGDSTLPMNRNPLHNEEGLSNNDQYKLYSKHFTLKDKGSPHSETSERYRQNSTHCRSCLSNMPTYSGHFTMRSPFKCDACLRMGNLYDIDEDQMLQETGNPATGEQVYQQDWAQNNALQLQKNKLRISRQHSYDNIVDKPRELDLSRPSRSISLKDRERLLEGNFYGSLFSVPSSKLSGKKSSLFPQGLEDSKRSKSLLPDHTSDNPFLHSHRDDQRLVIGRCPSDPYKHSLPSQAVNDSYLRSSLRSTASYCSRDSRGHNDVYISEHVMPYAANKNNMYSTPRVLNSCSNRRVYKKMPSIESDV

In the case of `CCN(Cc1cc(=O)n2c3c(sc2n1)CCC3COC)c1ccc(F)cc1` (stereo not drawn) [Example 8.15, 2-((ethyl(4-fluorophenyl)amino)methyl)-6-(methoxymethyl)-7,8-dihydrocyclopenta[4,5]thiazolo[3,2-a]pyrimidin-4(6H)-one], for the setting “Table 2”, the EC50 – broadly, the concentration needed to bring the measured effect to its halfway point – was 2.3 µM and the Max % is 138%.
For `CC(=O)c1c(C)sc2nc(Cn3nc(C(F)(F)F)cc3Cl)cc(=O)n12` [compound 119, 3-acetyl-7-[[5-chloro-3-(trifluoromethyl)pyrazol-1-yl]methyl]-2-methyl-thiazolo[3,2-a]pyrimidin-5-one], the EC50 (Table 3) turned out to be 0.325 µM.
Consider `CNC(=O)c1c(C)sc2nc(Cc3cccc(C4CC4)c3F)cc(=O)n12` [compound 1, 7-[(3-cyclopropyl-2-fluoro-phenyl)methyl]-N,2-dimethyl-5-oxo-thiazolo[3,2-a]pyrimidine-3-carboxamide], for which the half-maximal effective concentration (EC50) (Table 3) is 0.932 µM.
For the molecule `Cc1sc2nc(Cn3nc(Cl)cc3C(F)(F)F)cc(=O)n2c1-c1cncc(Cl)c1` [compound 150, 3-(5-chloro-3-pyridyl)-7-[[3-chloro-5-(trifluoromethyl)pyrazol-1-yl]methyl]-2-methyl-thiazolo[3,2-a]pyrimidin-5-one], the EC50 (Table 3) was 17.3 µM.
As to `CCc1sc2nc(Cn3nc(C(F)(F)F)cc3Cl)cc(=O)n2c1-c1cccnc1` [compound 202, 7-[[5-chloro-3-(trifluoromethyl)pyrazol-1-yl]methyl]-2-ethyl-3-(3-pyridyl)thiazolo[3,2-a]pyrimidin-5-one], the EC50 (Table 3) is 23.9 µM.
Still for that read-out and setting: the same measure for `CCNC(=O)c1c(C)sc2nc(Cn3nc(C(F)(F)F)cc3C)cc(=O)n12` [compound 26, N-ethyl-2-methyl-7-[[5-methyl-3-(trifluoromethyl)pyrazol-1-yl]methyl]-5-oxo-thiazolo[3,2-a]pyrimidine-3-carboxamide]: 4.82 µM.
Take `CCNC(=O)c1c(C)sc2nc(Cc3c(CC)ccc(F)c3F)cc(=O)n12` [Example 21.63, N-ethyl-7-(6-ethyl-2,3-difluorobenzyl)-2-methyl-5-oxo-5H-thiazolo[3,2-a]pyrimidine-3-carboxamide]: where the note is “Table 2”, the Max % is reported as 124%.
Regarding `Cc1sc2nc(Cn3nccc3C(F)(F)F)cc(=O)n2c1-c1cncnc1` [Example 15.31, 2-methyl-3-(pyrimidin-5-yl)-7-((5-(trifluoromethyl)-1H-pyrazol-1-yl)methyl)-5H-thiazolo[3,2-a]pyrimidin-5-one], the Max % (Table 2) stood at 57.8%.
In the case of `Cc1sc2nc(Cn3nc(N)cc3Cl)cc(=O)n2c1Br` [compound 227, 7-[(3-amino-5-chloro-pyrazol-1-yl)methyl]-3-bromo-2-methyl-thiazolo[3,2-a]pyrimidin-5-one], the EC50 (Table 3) turned out to be 13 µM.
On the same count and under the same terms, to `Cc1sc2nc(Cn3nc(C(F)(F)F)cc3Cl)cc(=O)n2c1C1CC1C#N` (stereo not drawn) [compound 104, 2-[7-[[5-chloro-3-(trifluoromethyl)pyrazol-1-yl]methyl]-2-methyl-5-oxo-thiazolo[3,2-a]pyrimidin-3-yl]cyclopropanecarbonitrile] belongs 0.0341 µM.
Regarding `CNC(=O)c1c(C)sc2nc(Cc3ccc(Cl)cc3Cl)cc(=O)n12` [Example 21.57, 7-[(2,4-dichlorophenyl)methyl]-N,2-dimethyl-5-oxo-thiazolo[3,2-a]pyrimidine-3-carboxamide], the Max % (Table 2) is on record as 64.1%.
As for `COc1cc(F)c(F)cc1Cc1cc(=O)n2c(C3CC3C#N)c(C)sc2n1` (stereo not drawn) [compound 194, 2-[7-[(4,5-difluoro-2-methoxy-phenyl)methyl]-2-methyl-5-oxo-thiazolo[3,2-a]pyrimidin-3-yl]cyclopropanecarbonitrile], under “Table 3”, the EC50 stood at 1.28 µM.
Still for that read-out and setting: to `CCNC(=O)c1c(C)sc2nc(Cn3nc(C(F)(F)F)cc3CC(C)C)cc(=O)n12` [compound 265, N-ethyl-7-[[5-isobutyl-3-(trifluoromethyl)pyrazol-1-yl]methyl]-2-methyl-5-oxo-thiazolo[3,2-a]pyrimidine-3-carboxamide] belongs 4.84 µM; to `Cc1sc2nc(Cn3nc([N+](=O)[O-])cc3Cl)cc(=O)n2c1Br` [compound 246, 3-bromo-7-[(5-chloro-3-nitro-pyrazol-1-yl)methyl]-2-methyl-thiazolo[3,2-a]pyrimidin-5-one], 0.0999 µM.
Turning to `Cc1sc2nc(Cn3ccc(C(F)(F)F)n3)cc(=O)n2c1C#N` [Example 17.1, 2-methyl-5-oxo-7-((3-(trifluoromethyl)-1H-pyrazol-1-yl)methyl)-5H-thiazolo[3,2-a]pyrimidine-3-carbonitrile], the Max % (Table 2) is listed as 107%.
Consider `Cc1sc2nc(Cn3nc(C(F)(F)F)cc3Cl)cc(=O)n2c1CS(C)(=O)=O` [compound 185, 7-[[5-chloro-3-(trifluoromethyl)pyrazol-1-yl]methyl]-2-methyl-3-(methylsulfonylmethyl)thiazolo[3,2-a]pyrimidin-5-one], for which, under “Table 3”, the EC50 came to 17.8 µM.
Same read-out and setting: the same measure for `CNC(=O)c1c(C(F)(F)F)sc2nc(Cn3nc(C4CC4)cc3C(F)(F)F)cc(=O)n12` [compound 54, 7-[[3-cyclopropyl-5-(trifluoromethyl)pyrazol-1-yl]methyl]-N-methyl-5-oxo-2-(trifluoromethyl)thiazolo[3,2-a]pyrimidine-3-carboxamide]: 2.2 µM.
`CCNC(=O)c1c(C)sc2nc(Cc3cccc(C4CC4)c3F)cc(=O)n12` [Example 21.25, 7-(3-cyclopropyl-2-fluorobenzyl)-N-ethyl-2-methyl-5-oxo-5H-thiazolo[3,2-a]pyrimidine-3-carboxamide]: where the note is “Table 2”, the EC50 is 3.9 µM and the Max % worked out at 105%.
For the molecule `Cc1sc2nc(Cn3nc(Cl)cc3C(F)(F)F)cc(=O)n2c1C(C)CO` (stereo not drawn) [compound 223, 7-[[3-chloro-5-(trifluoromethyl)pyrazol-1-yl]methyl]-3-(2-hydroxy-1-methyl-ethyl)-2-methyl-thiazolo[3,2-a]pyrimidin-5-one], for the setting “Table 3”, the EC50 was found to be 10.9 µM.
Regarding `Cc1sc2nc(COc3ccc(F)cc3)cc(=O)n2c1[C@@H]1C[C@H]1C#N` (single isomer, unassigned) [Example 4.22, trans-2-[7-(4-Fluorophenoxymethyl)-2-methyl-5-oxo-5H-[1,3]thiazolo[3,2-a]pyrimidin-3-yl]cyclopropane-1-carbonitrile], the Max % (Table 2) was found to be 84.2%.
As for `CCNC(=O)c1c(OC)sc2nc(Cn3nc(C(F)(F)F)cc3C3CC3)cc(=O)n12` [compound 129, 7-[[5-cyclopropyl-3-(trifluoromethyl)pyrazol-1-yl]methyl]-N-ethyl-2-methoxy-5-oxo-thiazolo[3,2-a]pyrimidine-3-carboxamide], the EC50 (Table 3) came to 0.774 µM.
With `CCN(Cc1cc(=O)n2cc(C)sc2n1)c1ccccc1` [Example 11.6, 7-[(N-ethylanilino)methyl]-2-methyl-thiazolo[3,2-a]pyrimidin-5-one], under “Table 2”, the EC50 was 5 µM and the Max % was determined as 133%.
For the molecule `CNC(=O)c1c(C)sc2nc(Cc3cccc(C(F)F)c3F)c(F)c(=O)n12` [compound 30, 7-[[3-(difluoromethyl)-2-fluoro-phenyl]methyl]-6-fluoro-N,2-dimethyl-5-oxo-thiazolo[3,2-a]pyrimidine-3-carboxamide], for the setting “Table 3”, the EC50 was 2.57 µM.
Consider `CNC(=O)c1c(C)sc2nc(Cc3cccc(C#N)c3)cc(=O)n12` [Example 21.1, 7-(3-cyanobenzyl)-N,2-dimethyl-5-oxo-5H-thiazolo[3,2-a]pyrimidine-3-carboxamide], for which, under “Table 2”, the Max % stood at 96.6%.
